For series [1], the system named is Staphylococcus aureus CVCC26003. The series is described as follows: in vitro susceptibility, MIC by mini broth dilution. To be noted: strain CVCC26003. In kind it is cell-based. In outline: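 S. aureus CVCC26003 was revived and subcultured twice, 20 h each at 35° C, on solid medium, then diluted 1:200 in CAMHB liquid medium. Compounds received an 11-step two-fold DMSO dilution in parallel duplicate rows. MIC was read by mini broth dilution per NCCLS guidance.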

Series [2] concerns Actinobacillus pleuropneumoniae CVCC262. The series is described as above. Type of series: cell-based. The conditions noted are these: strain CVCC262. The method in brief:
(§1)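 Veterinary bacterial strains were grown twice on solid medium at 35 °C for 20 h. Inocula were diluted 1:200 in broth and tested against 11 two-fold compound dilutions (DMSO), in paired rows, by mini broth dilution per NCCLS guidance. MIC was the readout.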

Series [3] concerns Streptococcus equines CVCC556. The description is as above. In kind it is cell-based. The conditions noted are these: strain CVCC556. The method in brief: as §1
Series [4] has as its system Haemophilus parasuis. The series is described as above. In kind it is cell-based. The method in brief:
as §1

The subject of series [5] is Pasteurella multocida CVCC399. Described as above. The conditions noted are these: strain CVCC399. In kind it is cell-based. The method in brief:
as §1

Series [6] is described as follows: acute toxicity test, single gastric perfusion. Type of series: in vivo, Balb/c mice. To be noted: 2000 mg/kg once by gastric perfusion, 85 mg/ml suspension; deaths after 6 h. An excerpt: The marked parts of mice in the Syzx-24 group were respectively left hinder limbs (female), necks (female), right hinder limbs (male), and necks (male). The mice in the solvent control group were not marked.

For series [7] the following is noted: orally intoxicated mice; reported; cited from earlier work.
Series [8] in a line: acute oral toxicity test, LD50 by improved karber method. The conditions noted are these: per os, gavaged once, in 0.2% sodium carboxymethylcellulose; observed 7 days.
Series [9] relates to Streptococcus pneumoniae CMCC 31203. The series is described as follows: in vivo antibacterial test, survival of infected mice. Also on record: species or system BALB/c mice. The conditions noted are these: observed until the seventh day.
Setting [10] is: medicament control group, Tulathromycin 10 mg per kg after infection.
Where [11] appears, read: mice infected i.p. with Streptococcus pneumoniae, 5 mg per kg subcutaneous for 3 consecutive days.

The term LD50 denotes the dose at which mortality reaches 50%.

On to `CC[C@H]1OC(=O)[C@H](C)[C@@H](O[C@H]2C[C@@](C)(OC)[C@](O)(CN(C)C)[C@H](C)O2)[C@H](C)[C@@H](O[C@@H]2O[C@H](C)C[C@H](N(C)C)[C@H]2O)[C@](C)(O)C[C@@H](C)NC[C@H](C)[C@@H](O)[C@]1(C)O` [Syzx-24], for which, in series [1], the “MIC values, Staphylococcus aureus CVCC26003” value is 0.5 ug/mi. The “MIC values, Actinobacillus pleuropneumoniae CVCC262” value in [2] is listed as 0.25 ug/mi. Further, the “MIC values, Streptococcus equines CVCC556” value in series [3] is reported as 0.25 ug/mi. Moreover, the “MIC values, Haemophilus parasuis” value in [4] is on record as 0.5 ug/mi. Further, the “MIC values, Pasteurella multocida CVCC399” value in [5] amounted to 0.25 ug/mi. Also, in series [6], the Death rate is recorded as 0% and the “Number of dead animals/total number of animals” value is listed as 0/4.

As for `CCCNC[C@]1(O)[C@H](C)O[C@@H](O[C@H]2[C@H](C)[C@@H](O[C@@H]3O[C@H](C)C[C@H](N(C)C)[C@H]3O)[C@](C)(O)C[C@@H](C)CN[C@H](C)[C@@H](O)[C@](C)(O)[C@@H](CC)OC(=O)[C@@H]2C)C[C@@]1(C)OC` [Tulathromycin, reference compound], in [7], the minimum lethal dose result is recorded as “higher than 2000 mg/kg·d-1”. Besides, the LD50 in series [8] turned out to be 2379.2 mg/kg. Further, the “MIC values, Staphylococcus aureus CVCC26003” value in series [1] was determined as 0.25 ug/mi. The “MIC values, Actinobacillus pleuropneumoniae CVCC262” value in [2] stood at 0.25 ug/mi. The “MIC values, Streptococcus equines CVCC556” value in series [3] was found to be 0.25 ug/mi. Further, the “MIC values, Haemophilus parasuis” value in series [4] was 0.25 ug/mi. For the same molecule, the “MIC values, Pasteurella multocida CVCC399” value in [5] was determined as 0.25 ug/mi. Also, in series [6], the Death rate is given as 75%; the “Number of dead animals/total number of animals” value is 3/4 (2 female and 1 male). Besides, in series [9] (setting [10]), the Animal survival rate turned out to be 70% and the “Animal survival rate (surviving/total animals)” value is reported as 7/10.

On to `CCCNC[C@]1(O)[C@H](C)O[C@@H](O[C@H]2[C@H](C)[C@@H](O[C@@H]3O[C@H](C)C[C@H](N(C)C)[C@H]3O)[C@](C)(O)C[C@@H](C)NC[C@H](C)[C@@H](O)[C@](C)(O)[C@@H](CC)OC(=O)[C@@H]2C)C[C@@]1(C)OC` [syzx-1, (2R,3S,4R,5S,8R,10R,11R,12S,13S,14R)-13-[(2,6-dideoxy-3-C-methyl-3-O-methyl-4-C-[(propylamino)methyl]-α-L-ribopyranosyl)oxy]-2-ethyl-3,4,10-trihydroxy-3,5,8,10,12,14-hexamethyl-11-[[3,4,6-trideoxy-3-(dimethylamino)-β-D-xylo-hexopyranosy]oxy]-1-oxa-7-azacyclopentadecan-15-one], for which, in series [8], the median lethal dose (LD50) is recorded as 2584.8 mg/kg. Besides, the “MIC values, Staphylococcus aureus CVCC26003” value in series [1] is given as 0.125 ug/mi. Moreover, the “MIC values, Actinobacillus pleuropneumoniae CVCC262” value in series [2] was found to be 0.125 ug/mi. Moreover, the “MIC values, Streptococcus equines CVCC556” value in series [3] worked out at 0.125 ug/mi. In addition, in [4], the “MIC values, Haemophilus parasuis” value is on record as 0.125 ug/mi. The “MIC values, Pasteurella multocida CVCC399” value in series [5] was found to be 1 ug/mi. Further, in series [9] (setting [11]), the Animal survival rate turned out to be 80% and the “Animal survival rate (surviving/total animals)” value is 8/10.

In series [8], `CCCNC[C@]1(O)[C@H](C)O[C@@H](O[C@H]2[C@H](C)[C@@H](O[C@@H]3O[C@H](C)C[C@H](N(C)C)[C@H]3O)[C@](C)(O)C[C@@H](C)N(CCC)C[C@H](C)[C@@H](O)[C@](C)(O)[C@@H](CC)OC(=O)[C@@H]2C)C[C@@]1(C)OC` [syzx-101, (2R,3S,4R,5S,8R,10R,11R,12S,13S,14R)-13-[(2,6-dideoxy-3-C-methyl-3-O-methyl-4-C-[(n-propylamino)-methyl]-α-L-ribopyranosyl)oxy]-2-ethyl-3,4,10-trihydroxy-3,5,8,10,12,14-hexamethyl-7-propyl-11-[[3,4,6-trideoxy-3-(dimethylamino)-β-D-xylo-hexopyranosy]oxy]-1-oxa-7-azacyclopentadecan-15-one] showed an LD50 of 3760.6 mg/kg. The “MIC values, Staphylococcus aureus CVCC26003” value in series [1] was 0.125 ug/mi. Besides, the “MIC values, Actinobacillus pleuropneumoniae CVCC262” value in series [2] worked out at 0.125 ug/mi. Moreover, in [3], the “MIC values, Streptococcus equines CVCC556” value is 0.125 ug/mi. Moreover, the “MIC values, Haemophilus parasuis” value in [4] turned out to be 0.125 ug/mi. For the same molecule, the “MIC values, Pasteurella multocida CVCC399” value in series [5] stood at 0.125 ug/mi. In [9] (setting [11]), the Animal survival rate is given as 90% and the “Animal survival rate (surviving/total animals)” value is 9/10.

The values are drawn from patent US9765105B2, “Macrolide compound” (Pulike Biological Engineering, Inc., priority 2013, dated 2017).
